Source: patent publication US20250186485A1, “HYDRATION COMPOSITIONS” (priority 2017, published 2025)
Like-named read-outs stand apart in the source and are kept apart here.

What was measured:
[1] = tested on: patients with disabling intermittent claudication or rest pain of the lower extremities
Description: (§1) Dehydration often occurs in elderly population. Incidence of peripheral artery disease in patients over 60 years of age ranges between 18 and 29%. It was hypothesized that dehydration aggravates symptoms of PAD. Patients with disabling claudication or rest pain resistant to standard medical therapy were instructed to drink between 2,500 to 3000 milliliters of water according to their body mass.
(§2) Patients without a past history of Congestive Heart Failure or renal insufficiency were included in the following example without interrupting exercises they were performing or medication they were receiving. Ninety percent of the patients were receiving aspirin and 100% of them Statins and Cilostazol at least for 5 months before starting the protocol. (See Table 2 below.)
(§3) All patients belonged to category IIb of Fontaine and grade 1 category 2 and 3 of Rutherford.
(§4) Protocol: Complete physical examination and laboratory work were performed. Ankle-brachial pressures were recorded. • 1) Graphics of skin temperature were obtained in both feet using a Flir Thermal Camera (Flir Systems Inc.) in a room at 24 degrees Celsius. (See FIGS. 3 and 4) • 2) Time and distance to claudication using a treadmill at 3 miles per hour was recorded. • 3) Subjective classification of pain intensity from […] was documented. (0=no pain, 10=intense pain) • 4) Skin color-including the absence and/or reduction in abnormal variations in skin color, skin tone and skin elasticity.
(§5) Duplex of the abdominal artery, iliac arteries and infra-inguinal vessels was performed in every patient. Patients were followed weekly and underwent regular blood tests. Patients were recommended to drink 3,000 milliliters of water a day; fluids like tea and milk were counted in addition to water. This recommendation was the part of the protocol and it was carefully controlled.
Statistical analysis: software utilized: SPSS 20 Qualitative variables were expressed in percentages. Quantitative variables were analyzed with the test of Shapiro-Wilk. Continuous variables were expressed as median, 95% confidence intervals and interquartile intervals. Wilcoxon Signed Rank Test was also utilized P<0.05 was considered significant.

[2] = tested on: patient with intermittent claudication of the lower extremities and abdominal angina; conditions: Case 1
Description: A person complaining of 10 step intermittent claudication of the lower extremities, abdominal angina that produced a 15 Kg weight loss, and an abnormal renal function with a creatinine of 3.1 mg per deciliter.
The patient was having intermittent claudication for years but in the last four months it became disabling.
On physical exam patient had no palpable pulses.
The patient was admitted, stool cultures performed and patient was rehydrated with precaution considering their heart condition. […] After four days the patient was discharged and asked to drink 2.5 liters of fluids a day.

[3] = tested on: patient with right foot rest pain and disabling claudication; conditions: Case 2; for walking distance without pain: three liters of fluid a day
Description: A patient came to the consult with right foot rest pain, pallor and coldness up to the knee. […] Rest pain started one week before the consult and their claudication became disabling one month before. The patient was drinking less than 700 milliliters a day of fluids. […] Before proceeding to amputation, proper hydration was achieved. […] Three liters of fluid a day was recommended and the patient was discharged.

[4] = tested on: patients with disabling intermittent claudication or rest pain of the lower extremities; remark: listed apart in the source
Description: as §1, §2, §3, §4, §5

## O [water]
[1]; 0=no pain, 10=intense pain, CI 1 to 2.341, initial median 6 (6 to 8), p<0,0001
  pain intensity (final) Median: 2
[1]; FIG. 5, median, 95% confidence interval 29.300 to 31.468, initial median 29.95 (28 to 31)
  final Median dorsal temperature of the first right toe after treatment: 30.65
[1]; FIG. 6, median, CI 28.464 to 30.302, initial median 28.50 (27.366 to 29.939), p:0.0347
  final Median plantar temperature of the first right toe after treatment: 29.25
[1]; after 6 weeks of hydration, before 28.40 (26.82-30), p: 0.030
  Median temperature of the plantar aspect of the left foot after hydration: 29.20 (26.70-30.92) ° C.
[1]; after 6 weeks of hydration, before 28.70 (27-31), p: 0.011
  Median temperature of the plantar aspect of the right foot after 6 weeks: 29 (27.70-31) ° C.
[1]; after 6 weeks of hydration, before 29.40 (27.72-31.30), p: 0.009
  Median temperature of the dorsum of the left foot after 6 weeks: 30.20 (27.70-31.70) ° C.
[1]; after 6 weeks of hydration, before protocol 29.95 (27.60-31.15), p: 0.02
  Median temperature of the dorsum of the right foot after hydration: 30.35 (28.12-31.60) ° C.
[1]; after treatment
  Decrease of pain sensation recorded, percentage of patients: 91.7 % of patients
  Patients with improvement of pain sensation of more than 50%: 80 % of the patients
[1]; initial median 0.6 (0.50 to 0.69), p<0,0001
  Median ankle/brachial index after 6 weeks of treatment: 0.75 (0.62 to 0.80)
[1]; single patient 15, final intake of water 3000 ml, initial 6
  Final pain intensity sensation, patient 15: 0
[1]; single patient 15, final intake of water 3000 ml, initial 300 mts
  Distance to claudication (final), patient 15: 6000 mts
[1]; single patient 15, final intake of water 3000 ml, initial index 0.77
  Final ankle/brachial index, patient 15: 0.83
[1]; treadmill 3 miles per hour, end of 6 weeks, CI 382.947 to 800, initial median 100 (50 to 200), p<0.0001
  distance to claudication, final Median: 535
[1]; treadmill, 95% CI 4.195 to 9.209, initial median 1.3 (0.7 to 2.500), p<0.0001
  Time to claudication after hydration, Median: 6.3 min
[2]; 14 months after last admission, 2.5 liters of fluids a day
  walking distance without pain: more than 4 blocks
[2]; after rehydration in hospital, second day
  walking distance without pain: 50 meters
[3]; after seven months
  walking distance without pain: walked four kilometers without pain
[3]; after three months
  walking distance without pain: walked three blocks without pain
[3]; two days after proper hydration was achieved
  rest pain of the right foot: pain subsided
[4]; 35 patients in whom proper hydration was achieved
  status related to lower extremity ischemia: all of them improved
[4]; anecdotal, drinking 3 liters of water a day
  ulcers in the toes and ankle: reversed the lesions
[4]; patients who drank more than 2.5 liters of fluids a day (35 of the 36 patients)
  Time and distance to claudication, cutaneous temperature, ankle-brachial pressure and subjective pain sensation: improved significantly
